Laboratory results reported in patent US20260347361A1, “LRRK2 INHIBITORS AND USES THEREOF” (NEURON23, INC, priority 2022, published 2026).

Molecular target: T1, wt human LRRK2 (Homo sapiens, UniProt Q5S007)
T1 construct: wt human LRRK2, catalytic site, catalytic site (ThermoFisher/USA); purchased ThermoFisher
Experiment: TR-FRET LanthaScreen Tb Kinase Activity Assay, inhibition of LRRK2 kinase
Assay type: biochemical
Settings: 2 nM wt human LRRK2, 400 nM fluorescein-ERM (LRRKtide) peptide, 38 µM ATP, 15 min pre-incubation, 120 min at room temperature
Method: In Table 2, activity is provided as the following: “+++”=IC50 less than 50 nM; “++”=IC50 between 50 nM and 200 nM; “+”=IC50> or =200 nM.
The compounds listed in Table 2 were tested for their inhibitory effect on LRRK2 kinase according to the following procedures.
The protocol for basic TR-FRET LanthaScreen Tb Kinase Activity Assay inhibitor studies were as follows. LanthaScreen Kinase Activity Assays (ThermoFisher/USA) to evaluate inhibitors were performed by addition of 100 nl of test compound in corresponding DMSO dilutions/5 μl of kinase/fluorescein-ERM(LRRKtide) peptide mixture, Compound & kinase were pre-incubated for 15 minutes, then 5 μl of ATP into 384 well small volume plates. After incubation for 120 minutes at room temperature, the detection reagents containing Tb-anti-pLRRKtide antibody were added to monitor phosphorylation level of peptide. Then, after 60 min minutes incubation at room temperature plates were read in Envision. Data analysis of emission ratios was according to LanthaScreen Tb Kinase Activity Assay protocol.
Kinase and assay components were adjusted to final concentrations according to the kit protocol. For LRRK2: 2 nM wt human LRRK2, catalytic site, catalytic site (ThermoFisher/USA), 400 nM peptide, 38 µM ATP in 1× Kinase Buffer A.
Basic protocol for TR-FRET LanthaScreen Tb Kinase Activity Assay inhibitor studies involved two steps:
Enzymatic step: Addition of […] of test compound in corresponding DMSO dilutions, 5 μL of kinase/substrate mixture, 5 μL of ATP into 384 well small volume plates. Incubation for 120 minutes at room temperature.
Detection step: Addition of 10 μL EDTA & antibody, read plate after 60 minutes. Data analysis of emission ratios according to KinEASE assay protocol.
Kinase and assay components were adjusted to final concentrations according to the kit protocol.

T1 sequence (Q5S007 970-2527 limits assumed): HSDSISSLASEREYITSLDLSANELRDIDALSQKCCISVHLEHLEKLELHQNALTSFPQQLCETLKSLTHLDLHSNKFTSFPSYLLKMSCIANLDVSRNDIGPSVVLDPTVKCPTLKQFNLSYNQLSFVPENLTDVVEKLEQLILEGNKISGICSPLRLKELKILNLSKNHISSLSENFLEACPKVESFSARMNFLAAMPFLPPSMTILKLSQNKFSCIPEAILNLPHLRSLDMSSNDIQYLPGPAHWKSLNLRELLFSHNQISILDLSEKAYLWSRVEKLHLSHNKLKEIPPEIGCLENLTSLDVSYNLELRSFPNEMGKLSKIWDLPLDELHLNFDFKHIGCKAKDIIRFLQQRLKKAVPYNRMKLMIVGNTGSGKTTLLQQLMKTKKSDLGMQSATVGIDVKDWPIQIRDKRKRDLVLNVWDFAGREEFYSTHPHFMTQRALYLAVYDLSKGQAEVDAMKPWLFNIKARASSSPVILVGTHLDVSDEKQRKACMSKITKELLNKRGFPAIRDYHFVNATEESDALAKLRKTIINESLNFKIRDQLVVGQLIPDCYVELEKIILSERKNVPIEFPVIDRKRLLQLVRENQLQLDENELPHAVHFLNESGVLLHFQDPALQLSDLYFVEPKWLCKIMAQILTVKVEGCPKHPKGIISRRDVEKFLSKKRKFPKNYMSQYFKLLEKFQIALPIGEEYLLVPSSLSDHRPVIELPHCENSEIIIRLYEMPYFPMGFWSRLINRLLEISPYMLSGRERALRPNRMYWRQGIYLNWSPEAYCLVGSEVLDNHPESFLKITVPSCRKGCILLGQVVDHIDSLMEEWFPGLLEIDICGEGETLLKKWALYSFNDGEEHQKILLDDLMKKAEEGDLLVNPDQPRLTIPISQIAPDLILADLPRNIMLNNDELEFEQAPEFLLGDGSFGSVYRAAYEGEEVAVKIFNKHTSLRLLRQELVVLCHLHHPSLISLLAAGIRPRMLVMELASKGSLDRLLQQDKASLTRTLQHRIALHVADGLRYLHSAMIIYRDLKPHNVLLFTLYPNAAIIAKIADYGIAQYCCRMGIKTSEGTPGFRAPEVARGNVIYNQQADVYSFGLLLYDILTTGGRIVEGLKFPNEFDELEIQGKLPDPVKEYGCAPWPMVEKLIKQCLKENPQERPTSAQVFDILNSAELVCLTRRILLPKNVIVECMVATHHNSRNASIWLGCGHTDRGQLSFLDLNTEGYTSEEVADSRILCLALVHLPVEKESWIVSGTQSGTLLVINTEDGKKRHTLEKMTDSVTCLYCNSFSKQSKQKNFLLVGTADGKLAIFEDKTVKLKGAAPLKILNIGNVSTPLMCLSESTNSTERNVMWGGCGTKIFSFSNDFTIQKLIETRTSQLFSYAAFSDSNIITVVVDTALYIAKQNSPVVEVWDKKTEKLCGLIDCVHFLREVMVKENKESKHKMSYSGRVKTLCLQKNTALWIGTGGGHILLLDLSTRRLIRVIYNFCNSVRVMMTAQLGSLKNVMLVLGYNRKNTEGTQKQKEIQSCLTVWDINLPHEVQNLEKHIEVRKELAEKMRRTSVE

Row | SMILES | IC50 [nM]
1 | CC(C)(O)c1ccc2c(c1)-n1ncc(Cl)c1N=C(c1c(F)cccc1F)N2 [Methyl 2-[3-chloro-5-(2,6-difluorophenyl)-6H-pyrazolo[1,5-a][1,3,5]benzotriazepin-9-yl]propan-2-ol] | 50 to 200
2 | COC(=O)c1ccc2c(c1)-n1ncc(Cl)c1N=C(c1c(F)cccc1F)N2 [Methyl 3-chloro-5-(2,6-difluorophenyl)-6H-pyrazolo[1,5-a][1,3,5]benzotriazepine-9-carboxylate] | < 50
3 | O=C(O)c1ccc2c(c1)-n1ncc(Cl)c1N=C(c1c(F)cccc1F)N2 [Methyl 3-chloro-5-(2,6-difluorophenyl)-6H-pyrazolo[1,5-a][1,3,5]benzotriazepine-9-carboxylic acid] | > 200
4 | COC(=O)c1cnc2c(c1)-n1ncc(Cl)c1N=C(c1c(F)cccc1F)N2 [Methyl 5-chloro-8-(2,6-difluorophenyl)-2,3,7,9,11-pentazatricyclo[8.4.0.02,6]tetradeca-1(10),3,5,7,11,13-hexaene-13-carboxylate] | < 50
5 | CC(C)(C)NC(=O)c1ccc2c(c1)-n1ncc(Cl)c1N=C(c1c(F)cccc1F)N2 [N-(tert-butyl)-3-chloro-5-(2,6-difluorophenyl)-6H-benzo[f]pyrazolo[1,5-a][1,3,5]triazepine-9-carboxamide] | < 50

Next, values leading:

Row | IC50 [nM] | SMILES
6 | < 50 | C[C@H]1CN(c2cc3c(cn2)NC(c2c(F)cccc2F)=Nc2ccnn2-3)C[C@H](C)O1 [(2S,6S)-4-(5-(2,6-difluorophenyl)-6H-pyrazolo[1,5-a]pyrido[3,4-f][1,3,5]triazepin-9-yl)-2,6-dimethylmorpholine]
7 | < 50 | C[C@H]1CN(c2cc3c(cn2)NC(c2c(F)cccc2F)=Nc2c(Cl)cnn2-3)C[C@H](C)O1 [(2S,6S)-4-[5-chloro-8-(2,6-difluorophenyl)-2,3,7,9,12-pentazatricyclo[8.4.0.02,6]tetradeca-1(10),3,5,7,11,13-hexaen-13-yl]-2,6-dimethyl-morpholine]
8 | < 50 | C[C@@H]1COCCN1c1ccc2c(c1)-n1ncc(Cl)c1N=C(c1c(F)cccc1F)N2 [(3R)-4-[3-chloro-5-(2,6-difluorophenyl)-6H-pyrazolo[1,5-a][1,3,5]benzotriazepin-9-yl]-3-methyl-morpholine]
9 | < 50 | C[C@H]1COCCN1c1ccc2c(c1)-n1ncc(Cl)c1N=C(c1c(F)cccc1F)N2 [(3S)-4-[3-chloro-5-(2,6-difluorophenyl)-6H-pyrazolo[1,5-a][1,3,5]benzotriazepin-9-yl]-3-methyl-morpholine]
10 | < 50 | C[C@H]1CN(c2cc3c(cn2)NC(c2c(F)cccc2F)=Nc2c(F)cnn2-3)CCO1 [(S)-4-(5-(2,6-difluorophenyl)-3-fluoro-6H-pyrazolo[1,5-a]pyrido[3,4-f][1,3,5]triazepin-9-yl)-2-methylmorpholine]
11 | < 50 | C[C@H]1CN(c2cc3c(cn2)NC(c2c(F)cccc2F)=Nc2ccnn2-3)CCO1 [(S)-4-(5-(2,6-difluorophenyl)-6H-pyrazolo[1,5-a]pyrido[3,4-f][1,3,5]triazepin-9-yl)-2-methylmorpholine]
